Measurements from patent US20150119394A1, “Insulin-Like Growth Factor-1 Receptor Inhibitors” (Merck Sharp & Dohme Corp., priority 2012, published 2015).

Key:
[1] = test system: A673 (Ewing's Sarcoma) cancer cell line; experiment: Anti-proliferative assay (MTS / CCK-8); type: cell-based; details: for anti-proliferative activity as compared to compound 999: Ewing's Sarcoma cell line; for IC50: Homo sapiens, A673 (Ewing's Sarcoma), 72 hours, 100 ng/mL IGF, read-out: Anti-proliferation IC50
Procedure: Anti-proliferative potential of compounds was tested using various cell lines (details provided in Table 2) by MTS (Promega, Cat # G1111), a tetrazolium compound ((3-(4,5-dimethylthiazol-2-yl)-5-(3-carboxymethoxyphenyl)-2-(4-sulphophenyl)-2Htetrazolium, inner salt; MTS) and Cell Counting kit-8 (CCK-8 a Dojindo's highly watersoluble tetrazolium salt of WST-8 [2-(2-methoxy-4-nitrophenyl)-3-(4-nitrophenyl)-5-(2,4-disulfophenyl)-2H-tetrazolium, monosodium salt]). MTS is a colorimetric assay for determining the number of viable cells in proliferation, cytotoxicity or chemosensitivity assays. This is used with an electron coupling reagent PMS (Phenazine methosulfate). MTS is bioreduced by cells into a formazan that is soluble in tissue culture medium. The absorbance of the formazan at 490 nm can be measured directly from 96 well assay plates without additional processing. Dehydrogenase enzymes found in metabolically active cells accomplish the conversion of MTS into the aqueous soluble formazan. The quantity of formazan product is directly proportional to the number of living cells in culture. In CCK-8, WST-8 is reduced by dehydrogenases in cells to give a yellow colored product formazan, which is measured at 450 nm.
For experimental purposes, cells were seeded at a density of 3000-5000 cells per well in 180 μL/well volume in transparent 96 well tissue culture plate (NUNC, USA) and incubated overnight at 37° C., 5% CO2. Next day before adding compound the medium was replaced and 180 μL, of fresh medium added with the 100 ng/mL IGF without FCS followed by addition of 20 μL of 10× compound (10 mM stock made in DMSO and then further dilutions were made in medium, final DMSO concentration should not exceed 0.5%) and incubated for 72 hours in humidified 5% CO2 incubator at 37±1° C. After incubation medium was replaced with 200 μL of medium containing 20 μL MTS reagent per well. Plates were incubated for 3-4 hours and absorbance was measured at 490 nm on Spectrophotometer (SpectraMax, Molecular Devices). Percentage cytotoxicity and IC50 was calculated using SoftMax software. CCK-8 was used for suspension cell lines. Cell seeding and compound addition was done on same day. Following the incubation, 10 μL of CCK-8 solution was added in each well. After 4 hour incubation, the absorbance was determined at 450 nm using Spectrophotometer (SpectraMax, Molecular Devices). In every experiment, each condition was run in triplicate wells.

[2] = biological target: T1, intracellular kinase domain of human IGF-1R (GST fusion protein) (Homo sapiens, UniProt P08069); experiment: In vitro IGF-1R kinase assay (HTRF); type: biochemical; details: ATP 20 μM, IGFRK 0.25 nM
T1 construct: IGFRK and IRK enzyme used for the assay was intracellular kinase domain of human IGF-1R; GST; made in house

[3] = Oral absorption in Swiss mice; type: in vivo; details: 10 mg/kg p.o.; for Cmax / half-life / AUC(0-inf): male, mouse, plasma, po; for AUC(0-inf): read-out: AUC0-infinity
Procedure: Oral absorption of different compounds was ascertained in Swiss mice. The procedure followed was as detailed below:
Species: Swiss mice, overnight fasted state
Sex and weight: Male, in the weight range of 25-30 g
Number of animals: 18 animals divided into six groups (n=3) and bled as follows:
Formulation: Compound suspended in 0.5% carboxymethylcellulose or 0.25% methylcellulose
Blood (250 μL) is collected from the retro-orbital sinus at designated time points from each mouse using heparinized bleeding capillaries into micro-centrifuge tubes containing 5 μL EDTA (200 mM) as anticoagulant. Plasma is separated by centrifugation at 10000 rpm for 5 min and samples stored at −70° C. until bioanalysis.
On the day of analysis, plasma samples are thawed at room temperature. An aliquot (100 μL) of each plasma sample is spiked individually with 10 μL of internal standard. The samples are then vortexed for 10 seconds followed by addition of 1 mL of extraction solvent and vortexed for 5 minutes. The samples are then centrifuged at 10000 rpm for 5 minutes at 4° C. Supernatants (800 μL) are removed and transferred to glass tubes and evaporated to dryness under nitrogen. The dried residues are reconstituted using 100 μL of 90:10% v/v acetonitrile:MilliQ water. The reconstituted samples are vortexed, centrifuged and injected into LC-MS/MS for analysis. The calibration curve is prepared in the range of 0.5 to 5000 ng/mL in mouse plasma for quantitation.

[4] = biological target: T2, CYP2D6 (Homo sapiens, UniProt P10635); experiment: CYP inhibition fluorescence assay (rhCYP450, Vivid Invitrogen kit); type: in vitro ADME; details: for inhibition at 10 uM: human, read-out: % inhibition @ 10 uM 2D6
T2 construct: purchased Invitrogen (Vivid screening kits)
Procedure: (§1) The % inhibition @ 10 uM data was generated from an rhCYP450/fluorescence assay according to the Vivid Invitrogen screening kits. The compounds were screened against 5 CYP450 (1A2, 2C9, 2C19, 2D6, and 3A4) isoforms. CYP3A4 constitutes 28% of the human hepatic CYP and is responsible for metabolism of 50% of all drugs. In this class of drugs, CYP3A4 is the most important CYP and thus it is highly desirable not to inhibit CYP3A4. The lower the percentage inhibition, the lower the CYP450 inhibitory liability of that specific compound.

[5] = biological target: T3, CYP3A4 (Homo sapiens, UniProt P08684); experiment: as above; type: in vitro ADME; details: for hepatic CYP3A4 inhibition as compared to compound 999: 10 uM; for inhibition at 10 uM: human, read-out: % inhibition @ 10 uM 3A4
T3 construct: purchased Invitrogen (Vivid screening kits)
Procedure: as §1

T3 sequence (P08684 whole entry): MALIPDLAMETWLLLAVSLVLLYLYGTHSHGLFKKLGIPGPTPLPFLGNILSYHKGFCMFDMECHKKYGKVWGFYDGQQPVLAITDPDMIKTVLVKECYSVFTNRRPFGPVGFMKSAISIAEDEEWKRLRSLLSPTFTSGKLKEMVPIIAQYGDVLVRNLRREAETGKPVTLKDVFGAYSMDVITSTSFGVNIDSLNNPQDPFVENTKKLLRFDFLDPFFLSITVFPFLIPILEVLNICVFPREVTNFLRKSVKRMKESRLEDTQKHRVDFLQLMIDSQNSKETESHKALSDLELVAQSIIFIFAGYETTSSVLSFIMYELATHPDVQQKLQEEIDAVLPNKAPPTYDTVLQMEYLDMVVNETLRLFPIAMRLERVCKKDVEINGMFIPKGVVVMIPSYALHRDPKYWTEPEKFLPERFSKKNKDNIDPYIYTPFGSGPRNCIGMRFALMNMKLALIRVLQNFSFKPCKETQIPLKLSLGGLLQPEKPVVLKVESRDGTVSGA
T1 sequence (P08069 999-1274 limits assumed): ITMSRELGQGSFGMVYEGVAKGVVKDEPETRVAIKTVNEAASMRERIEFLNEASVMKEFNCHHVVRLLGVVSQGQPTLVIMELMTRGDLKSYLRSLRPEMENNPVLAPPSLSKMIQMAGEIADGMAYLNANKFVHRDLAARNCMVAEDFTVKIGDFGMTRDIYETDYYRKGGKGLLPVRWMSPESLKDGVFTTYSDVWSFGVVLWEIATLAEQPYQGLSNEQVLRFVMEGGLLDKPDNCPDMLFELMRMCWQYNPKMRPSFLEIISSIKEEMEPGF
T2 sequence (P10635 whole entry): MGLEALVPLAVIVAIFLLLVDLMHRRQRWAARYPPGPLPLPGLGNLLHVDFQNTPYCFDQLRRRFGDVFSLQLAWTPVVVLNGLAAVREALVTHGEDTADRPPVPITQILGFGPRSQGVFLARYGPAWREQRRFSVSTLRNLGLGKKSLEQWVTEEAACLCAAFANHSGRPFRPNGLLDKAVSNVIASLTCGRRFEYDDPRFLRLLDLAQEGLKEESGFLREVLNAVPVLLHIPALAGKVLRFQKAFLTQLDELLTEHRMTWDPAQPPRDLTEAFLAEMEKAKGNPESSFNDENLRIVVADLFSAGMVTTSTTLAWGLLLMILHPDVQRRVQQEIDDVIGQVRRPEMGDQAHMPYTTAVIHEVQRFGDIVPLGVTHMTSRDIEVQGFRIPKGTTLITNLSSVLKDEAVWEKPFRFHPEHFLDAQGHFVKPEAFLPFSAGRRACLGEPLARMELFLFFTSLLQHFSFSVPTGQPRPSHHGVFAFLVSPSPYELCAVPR

Row | SMILES | IC50 [1] [nM] | IC50 [2] [nM] | AUC as compared to compound 999 [3] | Cmax as compared to compound 999 [3] | Cmax [3] [nM] | half-life [3] [h] | AUC(0-inf) [3] [ng·h/mL] | inhibition at 10 uM [4] [%] | hepatic CYP3A4 inhibition as compared to compound 999 [5] | inhibition at 10 uM [5] [%] | hepatic CYP2D6 inhibition as compared to compound 999 ([4]; 10 uM) | anti-proliferative activity as compared to compound 999 [1]
1 | NC(=O)c1[nH]c2ccc(Cl)cc2c1S(=O)(=O)N1CCO[C@H](COc2cccc(-c3ccccc3)c2)C1 [Compound 1, (S)-3-((2-(([1,1′-biphenyl]-3-yloxy)methyl)morpholino)sulfonyl)-5-chloro-1H-indole-2-carboxamide] | 1.8 | 33 | higher | higher | 8560 | 5.3 | 10900 |  |  |  |  | higher
2 | NC(=O)c1[nH]c2ccc(Cl)cc2c1S(=O)(=O)N1CCO[C@H](COc2ccc(-c3ccncc3)cc2)C1 [Compound 32, (S)-5-chloro-3-((2-((4-(pyridin-4-yl)phenoxy)methyl)morpholino)sulfonyl)-1H-indole-2-carboxamide] |  | 3.5 | higher | higher | 2780 | 2.8 | 3190 |  |  |  |  | 
3 | Cc1ccc(OC[C@@H]2CN(S(=O)(=O)c3c(C(N)=O)[nH]c4ccc(Cl)cc34)CCO2)cc1-c1ccccc1 [Compound 20, (S)-5-chloro-3-((2-(((6-methyl-[1,1′-biphenyl]-3-yl)oxy)methyl)morpholino)sulfonyl)-1H-indole-2-carboxamide] |  | 140 | higher | higher | 1980 | 2.1 | 4710 | 25 | reduced | 2 |  | 
4 | NC(=O)c1[nH]c2ccc(Cl)cc2c1S(=O)(=O)N1CCO[C@H](COc2cccc(-c3cccnc3F)c2)C1 [Compound 3, (S)-5-chloro-3-((2-((3-(2-fluoropyridin-3-yl)phenoxy)methyl)morpholino)sulfonyl)-1H-indole-2-carboxamide] |  | 31.2 | higher | higher | 2980 | 4.6 | 1960 |  |  |  |  | 
5 | COc1ccc(-c2cccc(OC[C@@H]3CN(S(=O)(=O)c4c(C(N)=O)[nH]c5ccc(Cl)cc45)CCO3)c2)cn1 [Compound 7, (S)-5-chloro-3-((2-((3-(6-methoxypyridin-3-yl)phenoxy)methyl)morpholino)sulfonyl)-1H-indole-2-carboxamide] | 0.6 | 15.1 | higher | higher | 2200 | 0.9 | 1940 |  |  |  |  | higher
6 | CCOc1ccc(-c2cccc(OC[C@@H]3CN(S(=O)(=O)c4c(C(N)=O)[nH]c5ccc(Cl)cc45)CCO3)c2)cn1 [Compound 17, (S)-5-chloro-3-((2-((3-(6-ethoxypyridin-3-yl)phenoxy)methyl)morpholino)sulfonyl)-1H-indole-2-carboxamide] |  | 10 |  |  |  |  |  | 13 | reduced | 2 |  | 

Further lines, with some results ahead:

Row | IC50 [1] [nM] | IC50 [2] [nM] | AUC as compared to compound 999 [3] | Cmax as compared to compound 999 [3] | Cmax [3] [nM] | half-life [3] [h] | AUC(0-inf) [3] [ng·h/mL] | inhibition at 10 uM [4] [%] | hepatic CYP3A4 inhibition as compared to compound 999 [5] | inhibition at 10 uM [5] [%] | hepatic CYP2D6 inhibition as compared to compound 999 ([4]; 10 uM) | SMILES | anti-proliferative activity as compared to compound 999 [1]
7 |  | 9.3 |  |  |  |  |  | 16 | reduced | 24 |  | Cc1cc(OC[C@@H]2CN(S(=O)(=O)c3c(C(N)=O)[nH]c4ccc(Cl)cc34)CCO2)ccc1-c1ccnc(Cl)c1 [Compound 87, (S)-5-chloro-3-((2-((4-(2-chloropyridin-4-yl)-3-methylphenoxy)methyl)morpholino)sulfonyl)-1H-indole-2-carboxamide] | 
8 |  | 6.4 |  |  |  |  |  | 0 |  | 37 | reduced | NC(=O)c1[nH]c2ccc(Cl)cc2c1S(=O)(=O)N1CCO[C@H](COc2ccc(-c3ncccn3)cc2)C1 [Compound 53, (S)-5-chloro-3-((2-((4-(pyrimidin-2-yl)phenoxy)methyl)morpholino)sulfonyl)-1H-indole-2-carboxamide] | 
9 | 0.15 | 4.3 | higher | higher | 2550 | 1 | 3250 | 34 | reduced | 13 |  | Cc1cc(-c2ccc(OC[C@@H]3CN(S(=O)(=O)c4c(C(N)=O)[nH]c5ccc(Cl)cc45)CCO3)cc2)ccn1 [Compound 51, (S)-5-chloro-3-((2-((4-(2-methylpyridin-4-yl)phenoxy)methyl)morpholino)sulfonyl)-1H-indole-2-carboxamide] | higher
10 | 3.5 |  |  |  | 1200 | 1.31 | 1050 | 13 |  | 36 |  | NC(=O)c1[nH]c2ccc(I)cc2c1S(=O)(=O)N1CCO[C@H](COc2ccccc2)C1 [Compound 999, reference compound] | 
